Tests used:
HCV replicon cells = test: HCV replicon FRET assay; format: cell-based; settings: Hepatitis C virus
Source text: FRET Assay Preparation. To perform the HCV FRET screening assay, 96-well cell culture plates were used. The FRET peptide (Anaspec, Inc.) (Taliani et al., Anal Biochem. 1996, 240, 60-67) contains a fluorescence donor, EDANS, near one end of the peptide and an acceptor, DABCYL, near the other end. The fluorescence of the peptide is quenched by […] resonance energy transfer (RET) between the donor and the acceptor, but as the NS3 protease cleaves the peptide the products are released from RET quenching and the fluorescence of the donor becomes apparent. The assay reagent was made as follows: 5× cell Luciferase cell culture lysis reagent from Promega (#E153A) diluted to 1× with dH2O, NaCl added to 150 mM final, the FRET peptide diluted to 20 μM final from a 2 mM stock.
To prepare plates, HCV replicon cells, with or without a Renilla luciferase reporter gene, were trypsinized and placed into each well of a 96-well plate with titrated test compounds added in columns 3 through 12; columns 1 and 2 contained a control compound (HCV protease inhibitor), and the bottom row contained cells without compound. The plates were then placed in a CO2 incubator at 37° C.
Assays. Subsequent to addition of the test compounds described above (FRET Assay Preparation), at various times the plate was removed and Alamar blue solution (Trek Diagnostics, #00-100) was added per well as a measure of cellular toxicity. After reading in a Cytoflour 4000 instrument (PE Biosystems), plates were rinsed with PBS and then used for FRET assay by the addition of 30 ul of the FRET peptide assay reagent described above (FRET Assay Preparation) per well. The plate was then placed into the Cytoflour 4000 instrument which had been set to 340 excite/490 emission, automatic mode for 20 cycles and the plate read in a kinetic mode. Typically, the signal to noise using an endpoint analysis after the reads was at least three-fold. Alternatively, after Alamar blue reading, plates were rinsed with PBS, 50 ul of DMEM (high glucose) without phenol red was added and plates were then used for luciferase assay using the Promega Dual-Glo Luciferase Assay System.
Compound analysis was determined by quantification of the relative HCV replicon inhibition and the relative cytotoxicity values. To calculate cytoxicity values, the average Alamar Blue fluorescence signals from the control wells were set as 100% non-toxic. The individual signals in each of the compound test wells were then divided by the average control signal and multiplied by 100% to determine […]. To calculate the HCV replicon inhibition values, an average background value was obtained from the two wells containing the highest amount of HCV protease inhibitor at the end of the assay period. These numbers were similar to those obtained from naïve Huh-7 cells.
The background numbers were then subtracted from the average signal obtained from the control wells and this number was used as 100% activity. The individual signals in each of the compound test wells were then divided by the averaged control values after background subtraction and multiplied by 100% to determine percent activity. EC50 values for a protease inhibitor titration were calculated as the concentration which caused a 50% reduction in FRET or luciferase activity. The two numbers generated for the compound plate, percent cytoxicity and percent activity were used to determine compounds of interest for further analysis.

HCV NS5B = molecular target: T1, HCV NS5B (Hepatitis C virus genotype 1b, UniProt Q9WMX2); test: HCV NS5B RdRp enzyme assay (preincubation protocol); format: biochemical; settings: HCV NS5B RdRp genotype 1b
T1 construct: The protein was expressed with an 18 amino acid C-terminal truncation to enhance the solubility; made in house; host or cells: E. coli BL21(DE3)
Procedure: HCV NS5B RdRp cloning, expression, and purification. The cDNA encoding the NS5B protein of HCV, genotype 1b, was cloned into the pET21a expression vector. The protein was expressed with an 18 amino acid C-terminal truncation to enhance the solubility. The E. coli competent cell line BL21(DE3) was used for expression of the protein. Cultures were grown at 37° C. for ˜4 hours until the cultures reached an optical density of 2.0 at 600 nm. The cultures were cooled to 20° C. and induced with 1 mM IPTG. Fresh ampicillin was added to a final concentration of 50 μg/ml and the cells were grown overnight at 20° C.
Cell pellets (3 L) were lysed for purification to yield 15-24 mgs of purified NS5B. The lysis buffer consisted of 20 mM Tris-HCl, pH 7.4, 500 mM NaCl, 0.5% triton X-100, 1 mM DTT, 1 mM EDTA, 20% glycerol, 0.5 mg/ml lysozyme, 10 mM MgCl2, 15 ug/ml deoxyribonuclease I, and Complete TM protease inhibitor tablets (Roche). After addition of the lysis buffer, frozen cell pellets were resuspended using a tissue homogenizer. To reduce the viscosity of the sample, aliquots of the lysate were sonicated on ice using a microtip attached to a Branson sonicator. The sonicated lysate was centrifuged at 100,000×g for 1 hr at 4° C. and filtered through a 0.2 μm filter unit (Corning).
The protein was purified using three sequential chromatography steps: Heparin sepharose CL-6B, polyU sepharose 4B, and Hitrap SP sepharose (Pharmacia). The chromatography buffers were identical to the lysis buffer but contained no lysozyme, deoxyribonuclease I, MgCl2 or protease inhibitor and the NaCl concentration of the buffer was adjusted according to the requirements for charging the protein onto the column. Each column was eluted with a NaCl gradient which varied in length from 5-50 column volumes depending on the column type. After the final chromatography step, the resulting purity of the enzyme is >90% based on SDS-PAGE analysis. The enzyme was aliquoted and stored at −80° C.
Standard HCV NS5B RdRp enzyme assay. HCV RdRp genotype 1b assays were run in a final volume of 60 μl in 96 well plates (Costar 3912 H. The assay buffer is composed of 20 mM Hepes, pH 7.5, 2.5 mM KCl, 2.5 mM MgCl2, 1 mM DTT, 1.6 U RNAse inhibitor (Promega N2515), 0.1 mg/ml BSA (Promega R3961), and 2% glycerol. All compounds were serially diluted (3-fold) in DMSO and diluted further in water such that the final concentration of DMSO in the assay was 2%. HCV RdRp genotype 1b enzyme was used at a final concentration of 28 nM. A polyA template was used at 6 nM, and a biotinylated oligo-dT12 primer was used at 180 nM final concentration. Template was obtained commercially (Amersham 27-4110). Biotinylated primer was prepared by Sigma Genosys. 3H-UTP was used at 0.6 μCi (0.29 μM total UTP). Reactions were initiated by the addition of enzyme, incubated at 30° C. for 60 min, and stopped by adding 25 μl of 50 mM EDTA containing SPA beads (4 μg/μl, Amersham RPNQ 0007 H. Plates were read on a Packard Top Count NXT after >1 hr incubation at room temperature.
Modified HCV NS5B RdRp enzyme assay. A modified enzyme assay was performed essentially as described for the standard enzyme assay except for the following: The biotinylated oligo dT12 primer was precaptured on streptavidin-coated SPA beads by mixing primer and beads in assay buffer and incubating at room temperature for one hour. Unbound primer was removed after centrifugation. The primer-bound beads were resuspended in 20 mM Hepes buffer, pH 7.5 and used in the assay at final concentrations of 20 nM primer and 0.67 μg/μl beads. Order of addition in the assay: enzyme (14 nM) was added to diluted compound followed by the addition of a mixture of template (0.2 nM), 3H-UTP (0.6 μCi, 0.29 μM), and primer-bound beads, to initiate the reaction; concentrations given are final. Reactions were allowed to proceed for 4 hours at 30° C.
IC50 values for compounds were determined using seven different [I]. […]

T1 sequence (Q9WMX2 2420-2992): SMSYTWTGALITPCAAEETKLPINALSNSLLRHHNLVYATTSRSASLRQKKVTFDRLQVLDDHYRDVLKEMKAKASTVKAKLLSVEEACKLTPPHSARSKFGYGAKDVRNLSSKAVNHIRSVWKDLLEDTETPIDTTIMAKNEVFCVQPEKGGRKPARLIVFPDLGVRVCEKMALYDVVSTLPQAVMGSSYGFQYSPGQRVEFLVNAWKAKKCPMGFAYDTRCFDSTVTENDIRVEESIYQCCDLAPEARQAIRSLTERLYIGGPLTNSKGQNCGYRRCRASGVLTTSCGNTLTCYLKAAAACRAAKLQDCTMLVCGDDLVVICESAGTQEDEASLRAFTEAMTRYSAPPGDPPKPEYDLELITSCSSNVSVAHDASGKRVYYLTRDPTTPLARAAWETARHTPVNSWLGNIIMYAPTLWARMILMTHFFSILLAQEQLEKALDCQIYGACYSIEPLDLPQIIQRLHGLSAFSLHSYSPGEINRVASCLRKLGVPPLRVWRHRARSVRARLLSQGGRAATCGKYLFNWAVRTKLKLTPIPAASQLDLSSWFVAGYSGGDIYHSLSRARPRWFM

SMILES	EC50 (HCV replicon cells) [nM]	IC50 (HCV NS5B) [nM]
COC(=O)c1ccc2c(C3CCCCC3)c3n(c2c1)CC(c1nc(CS(C)(=O)=O)no1)=Cc1ccccc1-3 [Example 26, 13-cyclohexyl-6-[3-[(methylsulfonyl)methyl]-1,2,4-oxadiazol-5-yl-]7H-indolo[2,1-a][2]benzazepine-10-carboxylic acid, methyl ester]	> 500	> 500
CS(=O)(=O)Cc1noc(C2=Cc3ccccc3-c3c(C4CCCCC4)c4ccc(C(=O)O)cc4n3C2)n1 [Example 27, 13-cyclohexyl-6-[3-[(methylsulfonyl)methyl]-1,2,4-oxadiazol-5-yl]-7H-indolo[2,1-a][2]benzazepine-10-carboxylic acid]	> 500	1 to 500
CN(C)S(=O)(=O)NC(=O)c1ccc2c(C3CCCCC3)c3n(c2c1)CC(c1nc(CS(C)(=O)=O)no1)=Cc1ccccc1-3 [Example 28, 13-cyclohexyl-N-[(dimethylamino)sulfonyl]-6-[3-[(methylsulfonyl)methyl]-1,2,4-oxadiazol-5-yl]-7H-indolo[2,1-a][2]benzazepine-10-carboxamide]	> 500	1 to 500
Nc1nnc(C2=Cc3ccccc3-c3c(C4CCCCC4)c4ccc(C(=O)O)cc4n3C2)o1 [Example 30, 6-(5-amino-1,3,4-oxadiazol-2-yl)-13-cyclohexyl-7H-indolo[2,1-a][2]benzazepine-10-carboxylic acid]	> 500	> 500
O=C(CN1CCOCC1)Nc1nnc(C2=Cc3ccccc3-c3c(C4CCCCC4)c4ccc(C(=O)O)cc4n3C2)o1 [Example 33, 13-cyclohexyl-6-[5-[(4-morpholinylacetyl)amino]-1,3,4-oxadiazol-2-yl]-7H-indolo[2,1-a][2]benzazepine-10-carboxylic acid]	> 500	1 to 500
COC(=O)c1ccc2c(C3CCCCC3)c3n(c2c1)CC(c1ncc(CCC(=O)N2CCOCC2)o1)=Cc1ccccc1-3 [Example 35]	> 500	> 500
O=C(O)c1ccc2c(C3CCCCC3)c3n(c2c1)CC(c1ncc(CCC(=O)N2CCOCC2)o1)=Cc1ccccc1-3 [Example 36, 13-cyclohexyl-6-[5-[3-(4-morpholinyl)-3-oxopropyl]-2-oxazolyl]-7H-indolo[2,1-a][2]benzazepine-10-carboxylic acid]	> 500	1 to 500
CN(C)S(=O)(=O)NC(=O)c1ccc2c(C3CCCCC3)c3n(c2c1)CC(c1ncc(CCC(=O)N2CCOCC2)o1)=Cc1ccccc1-3 [Example 37, 13-cyclohexyl-N-[(dimethylamino)sulfonyl]-6-[5-[3-(4-morpholinyl)-3-oxopropyl]-2-oxazolyl-]7H-indolo[2,1-a][2]benzazepine-10-carboxamide]	1 to 500	1 to 500
CN(C)S(=O)(=O)NC(=O)c1ccc2c(C3CCCCC3)c3n(c2c1)CC(c1ncc(CCC(=O)N2CCOCC2)o1)Cc1ccccc1-3 (stereo not shown) [Example 38, 13-cyclohexyl-N-[(dimethylamino)sulfonyl]-6,7-dihydro-6-[5-[3-(4-morpholinyl)-3-oxopropyl]-2-oxazolyl]-5H-indolo[2,1-a][2]benzazepine-10-carboxamide]	1 to 500	1 to 500
COC(=O)c1ccc2c(C3CCCCC3)c3n(c2c1)CC(c1nnc(CC2CCOCC2)o1)=Cc1ccccc1-3 [Example 39, 13-cyclohexyl-6-[5-[(tetrahydro-2H-pyran-4-yl)methyl]-1,3,4-oxadiazol-2-yl]-7H-indolo[2,1-a][2]benzazepine-10-carboxylic acid, methyl ester]	> 500	> 500
COC(=O)c1ccc2c(C3CCCCC3)c3n(c2c1)CC(c1n[nH]c(CC2CCOCC2)n1)=Cc1ccccc1-3 [Example 40, 13-cyclohexyl-6-[5-[(tetrahydro-2H-pyran-4-yl)methyl]-1H-1,2,4-triazol-3-yl]-7H-indolo[2,1-a][2]benzazepine-10-carboxylic acid, methyl ester]	> 500	> 500
COC(=O)c1ccc2c(C3CCCCC3)c3n(c2c1)CC(c1nc(CC2CCOCC2)n(C)n1)=Cc1ccccc1-3 [Example 41, 13-cyclohexyl-6-[1-methyl-5-[(tetrahydro-2H-pyran-4-yl)methyl]-1H-1,2,4-triazol-3-yl]-7H-indolo[2,1-a][2]benzazepine-10-carboxylic acid, methyl ester]	> 500	> 500
Cn1nc(C2=Cc3ccccc3-c3c(C4CCCCC4)c4ccc(C(=O)O)cc4n3C2)nc1CC1CCOCC1 [Example 42, 13-cyclohexyl-6-[1-methyl-5-[(tetrahydro-2H-pyran-4-yl)methyl]-1H-1,2,4-triazol-3-yl]-7H-indolo[2,1-a][2]benzazepine-10-carboxylic acid]	> 500	> 500
CN(C)S(=O)(=O)NC(=O)c1ccc2c(C3CCCCC3)c3n(c2c1)CC(c1nc(CC2CCOCC2)n(C)n1)=Cc1ccccc1-3 [Example 43, 13-cyclohexyl-N-[(dimethylamino)sulfonyl]-6-[1-methyl-5-[(tetrahydro-2H-pyran-4-yl)methyl]-1H-1,2,4-triazol-3-yl]-7H-indolo[2,1-a][2]benzazepine-10-carboxamide]	> 500	1 to 500

From US7456165B2, “HCV NS5B inhibitors” (Bristol-Myers Squibb Company, priority 2006, dated 2008)
